From patent US20050136444A1 (priority 2003, published 2005)

Biological target: T1, EP2 receptor (Homo sapiens, UniProt P43116)
T1 construct: expressed in transfected cells; host or cells: HEK-T
Test: cAMP response to PGE2 in HEK-T cells (EP2 co-transfection)
Format: cell-based
Details: doses as high 10 μM
Text: An assay was established for measuring cAMP in transiently transfected cells that takes advantage of the fact that most cells that are transfected with one gene, can be simultaneously transfected with other genes. Thus, the NPFF1 and NPFF2 receptors were transfected along with a Gs-coupled receptor (EP2) at a ratio of 5:1.

T1 sequence (P43116 whole entry): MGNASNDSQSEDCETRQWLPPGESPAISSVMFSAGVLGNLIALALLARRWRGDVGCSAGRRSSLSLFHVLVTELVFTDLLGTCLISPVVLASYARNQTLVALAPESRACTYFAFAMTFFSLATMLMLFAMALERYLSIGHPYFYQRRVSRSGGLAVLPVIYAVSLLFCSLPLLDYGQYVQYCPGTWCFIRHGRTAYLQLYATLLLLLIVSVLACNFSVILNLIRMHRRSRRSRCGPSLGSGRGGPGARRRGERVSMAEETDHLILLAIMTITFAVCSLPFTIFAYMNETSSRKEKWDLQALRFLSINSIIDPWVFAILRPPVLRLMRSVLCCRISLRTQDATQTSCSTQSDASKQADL

In the case of `CCCCC[C@H](O)/C=C/[C@H]1[C@H](O)CC(=O)[C@@H]1C/C=C\CCCC(=O)O` [PGE2], the “response in un-transfected HEK-T cells” value is reported as “no response”.
